Laboratory results: paper PMC10445084, “Green synthesis, anti-proliferative evaluation, docking, and MD simulations studies of novel 2-piperazinyl quinoxaline derivatives using hercynite sulfaguanidine-SA as a highly efficient and reusable nanocatalyst” (RSC Advances, 2023)

What was measured:
SKOV3 = experiment: MTT cytotoxicity assay, SKOV3 ovarian cancer cells; type: cell-based, human; conditions: 48 h incubation
Description: (§1) The tested cells were cultured in medium and dialyzed fetal bovine serum (FBS) and then as suspended germs in Minimum Essential Medium (MEM) were seeded into 96-well plates (at the density of 10 × 10^4 viable cells per well). After 24 h incubation in 5% CO2 at 37 °C and cell attachment. Then the evaluated compounds (at 0.1–250 μg ml^−1 concentrations) were added to the cultured cells and incubated for another 24/48 h.[18,19] After washing of the cell containing plates with […], 20 μl of fresh 4,5-(dimethylthiazol-2-yl)-2,5-diphenyl tetrazolium bromide (MTT) solution (5 mg ml^−1) was added to each well, and incubated with cells for additional 4 h in the same conditions. Then, the medium was discarded and approximately 70 μl of DMSO was used and the resulted solution was vigorously mixed to dissolve and remove the residual tetrazolium and purple formazan crystals in each well. Next, the absorbance of each well was measured at 492 nm and 630 nm (for absorbance of MTT formazan and the reference wavelength respectively) with an ELISA plate reader. Stock solutions of all the tested compounds were prepared in DMSO, while the final dilutions were made with distilled water in order to maintain a maximum concentration of 0.5% DMSO per well. All the evaluated compounds were also tested for cytotoxicity on HFF normal cells at the above-mentioned concentrations and in the same conditions and incubation periods of time. Curves were fit using Graph Pad Prism as described in the Methods section.[19]
(§2) All the evaluated N-Mannich bases (2a–2d, 3a–3h and 4a–4d) were investigated for anti-proliferative activity against two cancer cell lines, HCT116 (human colon cancer) and KOV3 (human ovarian carcinoma). HFF (human foreskin fibroblasts) normal cells were also tested to determine the selectivity of their cytotoxic effects in killing cancer over normal cells. […] After 24 and 48 h of incubation, cell viability was measured by the [3-(4,5-dimethylthiazol-2-yl)-2,5-diphenyltetrazolium bromide] (MTT) colorimetric assay.[34] At the end of each incubation period, the IC50 value and cell viability for each N-Mannich base were calculated in different concentrations (0.15–2.4 μM) and determined graphically as established in Fig. 3. […] A DMSO equivalent control (n = 2 ± SEM) was also included for each cell line tested. Standard graph was plotted by taking concentration of the drug in X axis and relative cell viability in Y axis (cell viability (%) = mean OD/control OD × 100%) in Graph Pad Prism 8.
(§3) 2.5. Biological evaluations: In vitro cytotoxicity
(§4) This rapid assay is based on the reduction of tetrazolium salt to dark blue formazan product by mitochondrial enzymes of living, not dead cells after 24 and 48h exposure of cells to tested compounds at different concentrations. DMSO (with the less concentration than 1%) was the solvent in this biological test. serial concentrations were made by diluting stock solution of each compound (50μM) with culture media (RPMI 1640). […]

HCT116 = experiment: MTT cytotoxicity assay, HCT116 colon cancer cells; type: cell-based, human; conditions: 48 h incubation
Description: as §1, §2, §3, §4

HCT116 and SKOV3 = experiment: MTT assay, statements pooled over both cancer cell lines; type: cell-based; conditions: Homo sapiens, read-out: IC50 on the tested cancer cell lines
Description: as §1, with “Then, the medium was discarded and approximately 70 μl of DMSO was used and the resulted solution was vigorously mixed to dissolve and remove the residual tetrazolium and purple formazan crystals in each well.” left out, “Stock solutions of all the tested compounds were prepared in DMSO, while the final dilutions were made with distilled water in order to maintain a maximum concentration of 0.5% DMSO per well.” left out, “Curves were fit using Graph Pad Prism as described in the Methods section.[19]” left out
All the evaluated N-Mannich bases (2a–2d, 3a–3h and 4a–4d) were investigated for anti-proliferative activity against two cancer cell lines, HCT116 (human colon cancer) and KOV3 (human ovarian carcinoma). […] After 24 and 48 h of incubation, cell viability was measured by the [3-(4,5-dimethylthiazol-2-yl)-2,5-diphenyltetrazolium bromide] […]

[1] = tested on: HFF (human foreskin fibroblasts) normal cells; experiment: MTT cytotoxicity assay, HFF normal cells; type: cell-based; conditions: Fibroblast, 48 h incubation
Description: as §1, §2, §3, §4

IC50 (HCT116 and SKOV3) [µM] | SMILES | IC50 (SKOV3) [µM] | IC50 (SKOV3; Homo sapiens, SK-OV-3, 48 h) [µM] | IC50 (HCT116) [µM] | IC50 (HCT116; Homo sapiens, HCT-116, 48 h) [µM] | IC50 [1] [µM]
< 1 | CN(C)C(=N)NC(=N)/N=C1/C(=O)N(CN2CCN(c3cnc4ccccc4n3)CC2)c2ccc(Cl)cc21 [4c, N′-[4-(quinoxaline-2-yl)-piperazine-1-yl]methyl-5-chloro-1-H-indole,2,3-dion-3-metformin] | 0.44 | 0.44 | 0.392 | 0.39 | 6.81
– | O=C1C(=O)N(CN2CCN(c3cnc4ccccc4n3)CC2)c2ccc(Cl)cc21 [2c, 5-chloro-1-((4-(quinoxalin-2-yl)piperazin-1-yl)methyl) indoline-2,3-dione] | – | 6.49 | – | 6.06 | 82
– | O=C1C(=O)N(CN2CCN(c3cnc4ccccc4n3)CC2)c2ccc(Br)cc21 [2b, 5-bromo-1-((4-(quinoxalin-2-yl)piperazin-1-yl)methyl) indoline-2,3-dione] | – | 5.43 | – | 5.12 | 58.1
– | NC(=O)N/N=C1/C(=O)N(CN2CCN(c3cnc4ccccc4n3)CC2)c2ccc(Br)cc21 [3c, 2-(5-bromo-2-oxo-1-((4-(quinoxalin-2-yl)piperazin-1-yl)methyl)indolin-3-ylidene) hydrazine-1-carboxamide] | – | 3.52 | – | 3.35 | 35.9
– | Cc1ccc2c(c1)C(=NNC(N)=O)C(=O)N2CN1CCN(c2cnc3ccccc3n2)CC1 [3g, 2-(5-methyl-2-oxo-1-((4-(quinoxalin-2-yl)piperazin-1-yl)methyl)indolin-3-ylidene)hydrazine-1-carboxamide] | – | 3.25 | – | 2.92 | 22.8
– | NC(=O)NN=C1C(=O)N(CN2CCN(c3cnc4ccccc4n3)CC2)c2ccccc21 [3a, 2-(2-oxo-1-((4-(quinoxalin-2-yl)piperazin-1-yl)methyl)indolin-3-ylidene) hydrazine-1-carboxamide] | – | 2.21 | – | 1.99 | 13.5
– | NC(=S)N/N=C1/C(=O)N(CN2CCN(c3cnc4ccccc4n3)CC2)c2ccc(Cl)cc21 [3f, 2-(5-chloro-2-oxo-1-((4-(quinoxalin-2-yl)piperazin-1-yl)methyl)indolin-3-ylidene) hydrazine-1-carbothioamide] | – | 5.15 | – | 4.92 | 57.1
– | Cc1ccc2c(c1)/C(=N\C(=N)NC(=N)N(C)C)C(=O)N2CN1CCN(c2cnc3ccccc3n2)CC1 [4d] | – | 1.72 | – | 1.54 | 10
– | NC(=S)N/N=C1/C(=O)N(CN2CCN(c3cnc4ccccc4n3)CC2)c2ccc(Br)cc21 [3d, 2-(5-bromo-2-oxo-1-((4-(quinoxalin-2-yl)piperazin-1-yl)methyl)indolin-3-ylidene) hydrazine-1-carbothioamide] | – | 5.03 | – | 4.85 | 49.6
– | O=C1C(=O)N(CN2CCN(c3cnc4ccccc4n3)CC2)c2ccccc21 [2a, 1-((4-(quinoxalin-2-yl)piperazin-1-yl)methyl) indoline-2,3-dione] | – | 7.67 | – | 7.03 | 83.6
– | CN(C)C(=N)NC(=N)N=C1C(=O)N(CN2CCN(c3cnc4ccccc4n3)CC2)c2ccccc21 [4a, N’-[4-(quinoxaline-2-yl)-piperazine-1-yl]methyl-1-H-indole,2,3-dion-3-metformin] | – | 1.51 | – | 1.23 | 9.11
– | Cc1ccc2c(c1)/C(=N\NC(N)=S)C(=O)N2CN1CCN(c2cnc3ccccc3n2)CC1 [3h, 2-(5-methyl-2-oxo-1-((4-(quinoxalin-2-yl)piperazin-1-yl)methyl)indolin-3-ylidene) hydrazine-1-carbothioamide] | – | 3.46 | – | 3.23 | 26.6
< 1 | CN(C)C(=N)NC(=N)/N=C1/C(=O)N(CN2CCN(c3cnc4ccccc4n3)CC2)c2ccc(Br)cc21 [4b, N′-[4-(quinoxaline-2-yl)-piperazine-1-yl]methyl-5-bromo-1-H-indole,2,3-dion-3-metformin] | 0.488 | 0.48 | 0.458 | 0.45 | 6.95
– | NC(=S)N/N=C1/C(=O)N(CN2CCN(c3cnc4ccccc4n3)CC2)c2ccccc21 [3b, 2-(2-oxo-1-((4-(quinoxalin-2-yl)piperazin-1-yl)methyl)indolin-3-ylidene) hydrazine-1-carbothioamide] | – | 3.38 | – | 3.03 | 24.6
– | NC(=O)N/N=C1/C(=O)N(CN2CCN(c3cnc4ccccc4n3)CC2)c2ccc(Cl)cc21 [3e, 2-(5-chloro-2-oxo-1-((4-(quinoxalin-2-yl)piperazin-1-yl)methyl)indolin-3-ylidene) hydrazine-1-carboxamide] | – | 4.96 | – | 4.3 | 37.6
– | Cc1ccc2c(c1)C(=O)C(=O)N2CN1CCN(c2cnc3ccccc3n2)CC1 [2d, 5-methyl-1-((4-(quinoxalin-2-yl)piperazin-1-yl)methyl) indoline-2,3-dione] | – | 5.3 | – | 5 | 58.1
